Where no end group is shown, it is not given here.
Legend:
[1] = system: MM1418-C1 lightly pigmented melanoma cells; assay: melanin content after UVB, melanoma cells; assay type: cell-based; settings: 10 μM for 24 hours prior to 2 kJ/m2 UVB; measured 24 hours later; relative to untreated UVB cells
Experimental: (§1) In brief, MM1418-C1 lightly pigmented melanoma cells or human primary melanocytes were grown in 24 well culture plates and treated with 10 μM
(§2) RSKAKNPLYRRRRRRRRR (“IK-3”) for 24 hours prior to being exposed to 2 kJ/m2 UVB radiation. Controls (not treated with RSKAKNPLYRRRRRRRRR) labelled “Con” and “UVB”, respectively, were exposed to either 0 or 2 KJ/m2 UVB radiation. Cell groups were returned to the incubator for 24 hours and then the levels of melanin and protein in the cells were measured spectrophotometrically. In each experiment triplicate samples were measured. Data shown in FIG. 19 indicate the average values+SEM (μg melanin/mg cell protein) exposed to 0 or 2 KJ/m2 UVB which had been pre-treated with 0 or 10 μM of RSKAKNPLYRRRRRRRRR 24 hours prior to being exposed to UVB radiation. The t-test (2-tailed) was used to determine statistical significance, *p<0.05, ***p<0.001.

[2] = system: human primary melanocytes; assay: melanin content after UVB, primary melanocytes; assay type: cell-based; settings: 10 μM for 24 hours prior to 2 kJ/m2 UVB; measured 24 hours later; relative to untreated UVB cells
Experimental: as §1, §2

Sequence: RSKAKNPLYRRRRRRRRR (not fully specified (some residues)) [IK34720]
- melanin content [1]: significantly decreased melanin content
- melanin content [2]: significantly decreased melanin content
